According to the supplement of paper PMC11061612:

Assays:
Assay in all cases: combination Emax (second highest fraction inhibited in the dose matrix, 72 h); higher = more inhibition; extreme values may be limits of the assay
[1] = system: KYM-1 (Rhabdomyosarcoma)
How it was run: (§1)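 After 24 hours at 37°C and 5% CO2 in 1536-well plates, cells in DMEM/F12 or RPMI plus 10% FBS received two-drug dose matrices for 72 hours. Viability came from CellTiter-Glo 2.0 luminescence and was scaled as inhibition, anchored at 0 by vehicle wells and at 1 by blank wells. Combination Emax is taken as the second-highest inhibition in the matrix, and Bliss excess as the observed combination effect less EA + EB − EA·EB, with EA and EB the single-agent effects.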

[2] = system: Becker (Low Grade Glioma)
How it was run: as §1

[3] = system: SJRH30 (Rhabdomyosarcoma)
How it was run: as §1

[4] = system: OV-90 (Ovarian Carcinoma)
How it was run: as §1

[5] = system: Calu-6 (Non-Small Cell Lung Carcinoma)
How it was run: as §1

[6] = system: HSC-3 (Oral Cavity Carcinoma)
How it was run: as §1

[7] = system: JHH-1 (Hepatocellular Carcinoma)
How it was run: as §1

[8] = system: PC-14 (Lung Adenocarcinoma)
How it was run: as §1

[9] = system: CML-T1 (Chronic Myelogenous Leukemia)
How it was run: as §1

[10] = system: SK-MM-2 (Plasma Cell Myeloma)
How it was run: as §1

[11] = system: HuO-3N1 (Osteosarcoma)
How it was run: as §1

[12] = system: NCI-H810 (Non-Small Cell Lung Carcinoma)
How it was run: as §1

[13] = system: RMG-I (Ovarian Carcinoma)
How it was run: as §1

[14] = system: NCI-H1155 (Non-Small Cell Lung Carcinoma)
How it was run: as §1

[15] = system: KYSE-70 (Esophageal Squamous Cell Carcinoma)
How it was run: as §1

[16] = system: RT4 (Bladder Carcinoma)
How it was run: as §1

[17] = system: ES-2 (Ovarian Carcinoma)
How it was run: as §1

[18] = system: NCI-H196 (Small Cell Lung Carcinoma)
How it was run: as §1

[19] = system: LAMA-84 (Chronic Myelogenous Leukemia)
How it was run: as §1

[20] = system: AN3-CA (Endometrial Carcinoma)
How it was run: as §1

SMILES | combination Emax [1] | combination Emax [2] | combination Emax [3] | combination Emax [4] | combination Emax [5] | combination Emax [6] | combination Emax [7] | combination Emax [8] | combination Emax [9] | combination Emax [10] | combination Emax [11] | combination Emax [12] | combination Emax [13] | combination Emax [14] | combination Emax [15] | combination Emax [16] | combination Emax [17] | combination Emax [18] | combination Emax [19] | combination Emax [20]
COc1cccc(OCCCN)c1-c1cc(Nc2cnc(C#N)cn2)n[nH]1 [Prexasertib] + C=CCn1c(=O)c2cnc(Nc3ccc(N4CCN(C)CC4)cc3)nc2n1-c1cccc(C(C)(C)O)n1 [AZD1775] (first compound max 1 µM, partner max 1 µM) | 0.966 | 0.733 | 0.97 | 0.628 | 0.806 | 0.847 | 0.656 | 0.932 | 0.99 | 0.723 | 0.756 | 0.981 | 0.727 | 0.963 | 0.777 | 0.742 | 0.844 | 0.723 | 0.992 | 0.954
COc1cccc(OCCCN)c1-c1cc(Nc2cnc(C#N)cn2)n[nH]1 [Prexasertib] + CCc1c2c(nc3ccc(O)cc13)-c1cc3c(c(=O)n1C2)COC(=O)[C@]3(O)CC [SN-38] (first compound max 1 µM, 7x7, partner max 0.3 µM) | 0.97 | 0.816 | 0.984 | 0.573 | 0.862 | 0.937 | 0.75 | 0.894 | 1 | 0.875 | 0.808 | 0.98 | 0.505 | 0.993 | 0.869 | 0.894 | 0.988 | 0.659 | 1 | 0.946
COc1cccc(OCCCN)c1-c1cc(Nc2cnc(C#N)cn2)n[nH]1 [Prexasertib] + CN(C)CCCOc1ccc(-c2ccc3ncc4c(c3c2)n(C2CCOCC2)c(=O)n4C)cn1 [AZD0156] (first compound max 1 µM, 7x7, partner max 1 µM) | 0.952 | 0.711 | 0.94 | 0.532 | 0.745 | 0.654 | 0.677 | 0.85 | 0.987 | 0.652 | 0.48 | 0.877 | 0.698 | 0.885 | 0.618 | 0.304 | 0.863 | 0.606 | 0.988 | 0.81
COc1cccc(OCCCN)c1-c1cc(Nc2cnc(C#N)cn2)n[nH]1 [Prexasertib] + C[C@@H]1COCCN1C2=NC(=NC(=C2)C3(CC3)[S@](=N)(=O)C)C4=C5C=CNC5=NC=C4 [AZD6738] (first compound max 1 µM, 7x7, partner max 10 µM) | 0.956 | 0.733 | 0.943 | 0.548 | 0.772 | 0.731 | 0.579 | 0.879 | 0.97 | 0.634 | 0.432 | 0.9 | 0.629 | 0.93 | 0.602 | 0.555 | 0.867 | 0.566 | 0.99 | 0.821
COc1cccc(OCCCN)c1-c1cc(Nc2cnc(C#N)cn2)n[nH]1 [Prexasertib] + Cc1cc2ncnn2cc1Nc1ncc2c(n1)n(C1CCOCC1)c(=O)n2C [AZD7648] (first compound max 1 µM, 7x7, partner max 10 µM) | 0.942 | 0.707 | 0.935 | 0.548 | 0.796 | 0.731 | 0.559 | 0.861 | 0.98 | 0.67 | 0.49 | 0.896 | 0.678 | 0.92 | 0.615 | 0.404 | 0.848 | 0.551 | 0.99 | 0.843
COc1cccc(OCCCN)c1-c1cc(Nc2cnc(C#N)cn2)n[nH]1 [Prexasertib] + O=C(c1cc(Cc2n[nH]c(=O)c3ccccc23)ccc1F)N1CCN(C(=O)C2CC2)CC1 [Olaparib] (first compound max 1 µM, 7x7, partner max 10 µM) | 0.855 | 0.704 | 0.868 | 0.558 | 0.698 | 0.719 | 0.582 | 0.848 | 0.978 | 0.656 | 0.524 | 0.896 | 0.515 | 0.927 | 0.626 | 0.237 | 0.788 | 0.556 | 0.973 | 0.81
COc1cc2c(cc1OCCCCCOc1cc3c(cc1OC)C(=O)N1C=C(C)C[C@H]1C=N3)N=C[C@@H]1CC(C)=CN1C2=O [SG3199] + O=C(c1cc(Cc2n[nH]c(=O)c3ccccc23)ccc1F)N1CCN(C(=O)C2CC2)CC1 [Olaparib] (first compound max 0.001 µM, 7x7, partner max 10 µM) | 0.169 | 0.0512 | 0.122 | 0.098 | 0.186 | 0.157 | 0.136 | 0.179 | 0.738 | 0.137 | 0.219 | 0.131 | 0.114 | 0.263 | 0.0678 | 0.169 | 0.165 | 0.106 | 0.226 | 0.138
CCc1c2c(nc3ccc(O)cc13)-c1cc3c(c(=O)n1C2)COC(=O)[C@]3(O)CC [SN-38] + CN(C)CCCOc1ccc(-c2ccc3ncc4c(c3c2)n(C2CCOCC2)c(=O)n4C)cn1 [AZD0156] (first compound max 0.3 µM, 7x7, partner max 1 µM) | 0.952 | 0.847 | 0.359 | 0.457 | 0.762 | 0.855 | 0.316 | 0.592 | 1 | 0.883 | 0.567 | 0.51 | 0.446 | 0.962 | 0.25 | 0.819 | 0.912 | 0.0732 | 0.94 | 0.325
C[C@@H](c1ccc2nccn2c1)n1nnc2ncc(-c3cnn(C)c3)nc21 [Savolitinib] + CC1(C)CCC(CN2CCN(c3ccc(C(=O)NS(=O)(=O)c4ccc(NCC5CCOCC5)c([N+](=O)[O-])c4)c(Oc4cnc5[nH]ccc5c4)c3)CC2)=C(c2ccc(Cl)cc2)C1 [Venetoclax] (first compound max 1 µM, 7x7, partner max 1 µM) | 0.185 | 0.344 | 0.126 | 0.133 | 0.194 | 0.107 | 0.114 | 0.177 | 0.279 | 1 | 0.181 | 0.194 | 0.208 | 0.149 | 0.095 | 0.12 | 0.137 | 0.128 | 0.172 | 0.0904
C[C@@H](c1ccc2nccn2c1)n1nnc2ncc(-c3cnn(C)c3)nc21 [Savolitinib] + Cc1c2c(nn1C)CSCc1cc(n(C)n1)CSc1cc(c3ccccc3c1)OCCCc1c(C(=O)O)n(C)c3c-2c(Cl)ccc13 [AZD5991] (first compound max 1 µM, 7x7, partner max 1 µM) | 0.43 | 0.366 | 0.464 | 0.185 | 0.172 | 0.206 | 0.208 | 0.148 | 0.228 | 0.131 | 0.35 | 0.255 | 0.216 | 0.114 | 0.107 | 0.25 | 0.176 | 0.173 | 0.234 | 0.308
Cn1cnc2c(F)c(Nc3ccc(Br)cc3Cl)c(C(=O)NOCCO)cc21 [Selumetinib] + C=CCn1c(=O)c2cnc(Nc3ccc(N4CCN(C)CC4)cc3)nc2n1-c1cccc(C(C)(C)O)n1 [AZD1775] (first compound max 10 µM, partner max 1 µM) | 0.591 | 0.309 | 0.846 | 0.628 | 0.855 | 0.601 | 0.599 | 0.928 | 0.939 | 0.236 | 0.259 | 0.542 | 0.359 | 0.342 | 0.328 | 0.368 | 0.66 | 0.347 | 0.973 | 0.354
Cn1cnc2c(F)c(Nc3ccc(Br)cc3Cl)c(C(=O)NOCCO)cc21 [Selumetinib] + CC(C)n1c(=O)n(C)c2cnc3cc(F)c(-c4ccc(OCCCN5CCCCC5)nc4)cc3c21 [AZD1390] (first compound max 10 µM, 7x7, partner max 0.3 µM) | 0.141 | 0.235 | 0.0759 | 0.598 | 0.672 | 0.346 | 0.252 | 0.326 | 0.628 | 0.174 | 0.129 | 0.304 | 0.362 | 0.23 | 0.168 | 0.257 | 0.377 | 0.0904 | 0.926 | 0.0572
Cn1cnc2c(F)c(Nc3ccc(Br)cc3Cl)c(C(=O)NOCCO)cc21 [Selumetinib] + CCN(CCO)CCCOc1ccc2c(Nc3cc(CC(=O)Nc4cccc(F)c4)[nH]n3)ncnc2c1 [AZD2811] (first compound max 10 µM, 7x7, partner max 1 µM) | 0.318 | 0.296 | 0.253 | 0.606 | 0.733 | 0.512 | 0.375 | 0.587 | 0.765 | 0.161 | 0.181 | 0.444 | 0.364 | 0.674 | 0.21 | 0.516 | 0.488 | 0.0609 | 0.958 | 0.268
